Assays:
[1] = tested on: runoff transcription from HIV-1 LTR in HNE (human P-TEFb); experiment: Transcription of HIV LTR template in HeLa nuclear extract (HNE), 633-nt runoff (FIG. 7A); type: biochemical; settings: for IC50: HNE, HIV LTR template, read-out: 50% inhibition point, transcription assay
Method: (§1) The transcription template (Nco I-digested pLTR-4/CAT vector containing the HIV-1 LTR from −153 to +80) was used in a pulse-chase transcription experiment. Reactions (12 μl total; 20 mM HEPES, pH 7.6, 7 mM MgCl2, 20 μg/ml DNA template, 3 μl HNE, 64 mM KCl, with 50 μM DRB or 0.3 μl Drosophila P-TEFb (Marshall et al., 1996) as indicated) were pre-incubated for 20 minutes at 30° C., pulsed for 2 minutes by adding ATP, GTP, UTP to 600 μM each and 5 μCi [α-^32P]CTP (˜0.1 mM), and chased for 5 minutes by adding CTP to 1.2 mM. Reactions were stopped, phenol extracted and analyzed on a 6% polyacrylamide gel as described (Marshall and Price, 1995). pLTR-TAR-Luc and pLTR-DTAR-Luc plasmids were digested with Eco RI to generate TAR and DTAR template that were used in the studies. The TAR template contains HIV-1 LTR from −475 to +76, while the DTAR template contains HIV-1 LTR from −475 to +19. Transcription with TAR and DTAR templates generates runoffs of 694 and 646 nucleotides, respectively. The transcription reaction mix contained 20 mM HEPES (pH7.6), 7 mM MgCl2, 60 mM KCl, 0.5 μl HNE (or depHNE as indicated), 20 μg/ml TAR template (or DTAR template as indicated), indicated amount of HIV-1 Tat (86 residue HIV-1 Tat followed by a streptavidin binding tag at its carboxyl terminus) and DRB. The reaction mix was pre-incubated for 15 minutes at 30° C. and the transcription was started by adding nucleotides to final concentrations of 50 μM ATP, 50 μM GTP, 50 μM UTP, 10 μM CTP, and 5 μCi [α-^32P]CTP (˜0.1 mM), and continuously labeled for 20 minutes, or by adding nucleotides to final concentrations of 50 μM ATP, 50 μM GTP, 50 μM UTP, and 5 μCi [α-^32P]CTP (˜0.1 mM), and pulsed for 2 minutes. The reactions were stopped and reaction mix were phenol-extracted. The transcripts were then analyzed on a 6% polyacrylamide gel as described (Marshall and Price, 1995).

Drosophila TFIIH = experiment: CTD kinase assay with Drosophila TFIIH; type: biochemical; settings: 20 μM DRB
Method: 0.4 μl of purified RNA polymerase II and various protein samples were mixed in 18 μl of 55 mM HMK. The reaction was then initiated by the addition of 2 μl of a solution containing 2 μCi of [γ-^32P]ATP (ICN) and unlabeled ATP at 10 μM, or only unlabeled ATP at concentrations from 1 to 100 μM or other NTPs or dNTPs at concentrations of 1 to 100 μM. Reactions were incubated for the indicated times at 23° C. and then terminated with SDS loading buffer. Samples were analyzed on a 6–15% SDS polyacrylamide gel which was silver stained, dried and subjected to autoradiography if the assay contained label.
To determine whether P-TEFb was related to the protein kinase associated with TFIIH (Roy et al., 1994; Feaver et al., 1994; Cismowski et al., 1995; Serizawa et al., 1995; Shiekhattar et al., 1995), P-TEFb was compared with Drosophila TFIIH purified from Drosophila embryos by the method of Austin and Biggin (1996).

P-TEFb = experiment: Phosphorylation by P-TEFb of RNA polymerase II in high salt washed early elongation complexes (western blot); type: biochemical, Drosophila; settings: 20 μM DRB
[2] = tested on: transcription from HIV-1 LTR; experiment: In vitro Tat transactivation in HNE with TAR and DTAR templates (FIG. 8); type: biochemical, human
Method: as §1, with “The reaction mix was pre-incubated for 15 minutes at 30° C. and the transcription was started by adding nucleotides to final concentrations of 50 μM ATP, 50 μM GTP, 50 μM UTP, 10 μM CTP, and 5 μCi [α-^32P]CTP (˜0.1 mM), and continuously labeled for 20 minutes, or by adding nucleotides to final concentrations of 50 μM ATP, 50 μM GTP, 50 μM UTP, and 5 μCi [α-^32P]CTP (˜0.1 mM), and pulsed for 2 minutes. The reactions were stopped and reaction mix were phenol-extracted.” left out

[3] = tested on: CTD kinase found in the preinitiation complex; experiment: Phosphorylation of RNA polymerase II in isolated preinitiation complexes (western blot); type: biochemical, Drosophila; settings: 20 μM DRB
Method: Preinitiation complexes were formed on an immobilized actin template digested with HpaII (780 nt runoff) as described in Marshall and Price (Marshall and Price, 1992). The preinitiation complexes were isolated, washed once with 55 mM HKB (20 mM HEPES, 55 mM KCl and 200 μg/ml BSA) and resuspended into 55 mM HKB. Transcription was initiated by the addition of a pulse solution, which contained 5 μCi of [α-^32P]CTP and brought the reaction mixture to 600 μM in ATP, GTP and UTP and 2 mM MnCl2. MnCl2 increased the rate of initiation of preinitiation complexes, thereby, increasing the number of polymerases in early elongation complexes after a short pulse. After 15 seconds the reaction was stopped by the addition of EDTA to 10 mM.
Preinitiation complexes were formed on an immobilized actin template as described above in Methods, Section 3. […] Incubation of the preinitiation complexes with ATP caused a significant shift of the polymerase to the IIo form. The antibodies used to detect the large subunit of RNA polymerase II reacted more strongly with the […] of the large subunit than either the phosphorylated IIo form or the truncated IIb form. This phosphorylation was unaffected by the presence of 20 μM DRB.

[4] = tested on: mammalian cells in culture; settings: DRB added to mammalian cells in culture; cited from earlier work

## OC[C@H]1O[C@@H](n2cnc3cc(Cl)c(Cl)cc32)[C@H](O)[C@@H]1O [DRB, 5,6-dichloro-1-β-D-ribofuranosylbenzimidazole]
[1]
  IC50: 1 µM
Drosophila TFIIH
  sensitivity of CTD kinase activity of TFIIH: unaffected
P-TEFb
  ability of P-TEFb to phosphorylate RNA polymerase II in an early elongation complex: inhibited
[2]; 50 μM DRB
  effect of DRB on Tat-stimulated runoff: mostly inhibited
[2]; pulse-only protocol
  sensitivity to DRB of the effect of Tat on initiation: not sensitive
[3]
  phosphorylation of RNA polymerase II to IIo in preinitiation complexes incubated with ATP: unaffected
[4]
  inhibition in the production of mature mRNA: 95%

## CNCCNS(=O)(=O)c1cccc2cnccc12 [H-8]
[1]
  ratio of 50% inhibition points (H-8/DRB), transcription assay: 23
  IC50: 23 µM

Source: patent US7018836B1, “P-TEFb compositions, methods and screening assays” (priority 1996, dated 2006)
